Earlier results in patent US6444192B1, “Diagnostic imaging of lymph structures” (The Regents of the University of California, priority 1999, dated 2002).
Like-named read-outs stand apart in the source and are kept apart here.

Settings: 3 to 5 mL in the breast mass and surrounding tissue

In the case of `CCN(CC)c1ccc(C(=C2C=CC(=[N+](CC)CC)C=C2)c2cc(S(=O)(=O)[O-])ccc2S(=O)(=O)[O-])cc1.[Na+]` [isosulfan blue], the sentinel node detected (first 87 cases) is given as 58% and the sentinel node detected (next 87 cases) is given as 78%.
